Results: patent US7273717B2 (priority 2003, dated 2007)
Like-named read-outs stand apart in the source and are kept apart here. Peptide text beside a SMILES is read from it. * marks the point of attachment. Cbz = O=C(OCc1ccccc1)*

Tests used:
[1] = test system: GS-9005 hydrolase B; assay type: biochemical, human
[2] = target: GS-9005 hydrolase A; assay type: biochemical, human; details: pH 6.5; read-out: Inhibition profile IC50, 9005 Hydrolase A
[3] = pH 6.5, read-out: Inhibition profile IC50, 9005 Hydrolase B
[4] = read-out: concentration at which GS-9005 hydrolase B is inhibited by 50%

Structure (SMILES) | inhibition of GS-9005 hydrolase B (in words) [1] | IC50 [1, 3] [µM] | IC50 [1, 4] [µM] | IC50 [2] [µM]
O=c1oc(Cl)c(Cl)c2ccccc12 [3,4 DCI, 3,4 dichloroisocoumarin] | inhibited | 4 | ~4 | > 150
O=C[C@@H]1CCCN1C(=O)[C@@H]1CCCN1C(=O)OCc1ccccc1 [Cbz-pro-pro-COH, Carboxybenzoyl-Pro-Pro-COH] (Cbz-Pro-Pro-aldehyde) | – | > 100 | > 100 | –
CCOP(=O)(OCC)Oc1ccc([N+](=O)[O-])cc1 [paraoxon] | – | 0.02 | ~0.02 | 0.03
